From publication PMC7558399, “In Vitro Selective Growth-Inhibitory Activities of Phytochemicals, Synthetic Phytochemical Analogs, and Antibiotics against Diarrheagenic/Probiotic Bacteria and Cancer/Normal Intestinal Cells” (Pharmaceuticals, 2020)
Structures can show the parent of a compound that is named as a salt. Where two headings read alike, the source gives them in different places.

Key:
Type in all cases: cell-based
[1] = test system: Lactobacillus reuteri (CCM 3625); assay: Broth microdilution MIC, L. reuteri; conditions: Limosilactobacillus reuteri, CCM3625
[2] = test system: Enterococcus faecalis (ATCC 29212); assay: Broth microdilution MIC, E. faecalis; conditions: ATCC29212, […], read-out: MIC
[3] = test system: intestinal cancer cells (HT29 and Caco-2); assay: MTT cytotoxicity assay, mean for intestinal cancer cells; conditions: for IC50: read-out: x¯ -CC ± SD: mean IC50 for intestinal cancer cells; for IC80: read-out: x¯ -CC ± SD: mean IC80 for intestinal cancer cells
[4] = test system: Listeria monocytogenes (ATCC 7644); assay: Broth microdilution MIC, L. monocytogenes
[5] = test system: Bifidobacterium longum ssp. longum (DSMZ 20219); assay: Broth microdilution MIC, B. longum ssp. longum; conditions: DSMZ20219
[6] = test system: HT29 (ATCC HTB 38) intestinal cancer cells; assay: MTT cytotoxicity assay, HT29; conditions: Homo sapiens; for IC50: read-out: IC50 ± SD; for IC80: read-out: IC80 ± SD (80% inhibitory concentration of proliferation)
[7] = test system: Bifidobacterium breve (ATCC 15700); assay: Broth microdilution MIC, B. breve
[8] = test system: FHs 74 Int (ATCC CCL 241) intestinal normal cells; assay: MTT cytotoxicity assay, FHs 74 Int; conditions: 72 h; for IC50 / IC80: FHs74Int
[9] = test system: diarrheagenic bacteria (12 strains); assay: microbe, parasite or virus in culture
[10] = test system: S. enterica ssp. enterica serovar Typhimurium (ATCC 14028); assay: Broth microdilution MIC, Salmonella Typhimurium; conditions: Salmonella Typhimurium, […], read-out: MIC
[11] = test system: Yersinia enterocolitica (ATCC 9610); assay: Broth microdilution MIC, Y. enterocolitica; conditions: ATCC9610, […], read-out: MIC
[12] = test system: Clostridium difficile (DSMZ 12056); assay: microbe, parasite or virus in culture; conditions: Clostridioides difficile, DSMZ12056; Clostridium difficile; […]; read-out: MIC
[13] = test system: Shigella flexneri (ATCC 12022); assay: microbe, parasite or virus in culture
[14] = test system: E. coli 0175:H7 (NCTC 12900); assay: microbe, parasite or virus in culture; conditions: Escherichia coli, NCTC12900
[15] = test system: Bifidobacterium adolescentis (DSMZ 20087); assay: Broth microdilution MIC, B. adolescentis
[16] = test system: Bacteroides fragilis (ATCC 25285); assay: Broth microdilution MIC, B. fragilis
[17] = test system: probiotic bacteria (9 strains); assay: Broth microdilution MIC, probiotic bacteria as a group (mean or range over strains)
[18] = test system: Bifidobacterium bifidum (ATCC 29521); assay: Broth microdilution MIC, B. bifidum
[19] = test system: Caco-2 (ATCC HTB 37) intestinal cancer cells; assay: MTT cytotoxicity assay, Caco-2; conditions: Homo sapiens, Caco-2, 72 h; for IC50: read-out: IC50 ± SD; for IC80: read-out: IC80 ± SD (80% inhibitory concentration of proliferation)
[20] = test system: Salmonella enterica ssp. enterica serovar Enteritidis (ATCC 13076); assay: Broth microdilution MIC, Salmonella Enteritidis; conditions: Salmonella Enteritidis, […], read-out: MIC
[21] = test system: Vibrio parahaemolyticus (ATCC 17802); assay: Broth microdilution MIC, V. parahaemolyticus; conditions: ATCC17802, […], read-out: MIC
[22] = test system: Escherichia coli (ATCC 25922); assay: Broth microdilution MIC, E. coli; conditions: ATCC25922, […], read-out: MIC
[23] = test system: Bacillus cereus (ATCC 14579); assay: Broth microdilution MIC, B. cereus; conditions: ATCC14579, […], median/mode, read-out: MIC
[24] = test system: Bifidobacterium animalis spp. lactis (DSMZ 10140); assay: Broth microdilution MIC, B. animalis spp. lactis; conditions: DSMZ10140
[25] = test system: Lactobacillus rhamnosus (CCM 7091); assay: Broth microdilution MIC, L. rhamnosus; conditions: Lacticaseibacillus rhamnosus, CCM7091; Lactobacillus rhamnosus; […]; read-out: MIC
[26] = test system: Lactobacillus casei (DSMZ 20011); assay: Broth microdilution MIC, L. casei; conditions: Lacticaseibacillus casei, DSMZ20011; Lactobacillus casei; […]; read-out: MIC
[27] = test system: Clostridium perfringens (DSMZ 11778); assay: microbe, parasite or virus in culture; conditions: DSMZ11778
[28] = mean of 12 strains, >512 replaced with 1024, read-out: x¯ -DB ± SD: mean MIC for diarrheagenic bacteria
[29] = FHs 74 Int (intestinal normal cells), MTT

Structure (SMILES) | MIC [2] [µg/mL] | IC50 [3] [µg/mL] | IC80 [3] [µg/mL] | MIC [9, 28] [µg/mL] | MIC [10] [µg/mL] | MIC [11] [µg/mL] | MIC [12] [µg/mL] | MIC [14] [µg/mL] | IC50 [19] [µg/mL] | IC80 [19] [µg/mL] | MIC [20] [µg/mL] | MIC [21] [µg/mL] | MIC [22] [µg/mL] | MIC [23] [µg/mL] | MIC [25] [µg/mL] | MIC [26] [µg/mL] | MIC [27] [µg/mL] | also measured
C[n+]1cc2c3c(ccc2c2ccc4cc5c(cc4c21)OCO5)OCO3 [SG, sanguinarine chloride] | 32 | 0.8 ± 0.05 | 1.6 ± 0.2 | 156 ± 137 | 512 | 256 | 64 | 128 | 0.8 ± 0.1 | 1.5 ± 0.1 | 256 | 32 | 256 | 128 | 64 | 32 | 128 | MIC [1]: 32 µg/mL; MIC ([4]; ATCC7644): 16 µg/mL; MIC ([5]; Bifidobacterium longum): 64 µg/mL; IC50 ([6]; HT-29, HT29, MTT, 72 h): 0.9 ± 0.2 µg/mL; IC80 ([6]; HT-29, HT29, MTT, 72 h): 1.8 ± 0.4 µg/mL; MIC ([7]; ATCC15700): 32 µg/mL; IC50 ([8]; read-out: IC50 ± SD): 1 ± 0.1 µg/mL; IC80 ([8]; read-out: IC80 ± SD (80% inhibitory concentration of proliferation)): 1.9 ± 0.2 µg/mL; MIC ([13]; ATCC12022): 64 µg/mL; MIC ([15]; DSMZ20087): 16 µg/mL; MIC ([16]; ATCC25285): 32 µg/mL; MIC ([17]; read-out: x¯ -PB ± SD: mean MIC for probiotic bacteria): 37.3 ± 15 µg/mL; MIC ([18]; ATCC29521): 32 µg/mL; MIC ([24]; Bifidobacterium animalis): 32 µg/mL
CN[C@H](CC(C)C)C(=O)N[C@H]1C(=O)N[C@@H](CC(N)=O)C(=O)N[C@H]2C(=O)N[C@H]3C(=O)N[C@H](C(=O)N[C@H](C(=O)O)c4cc(O)cc(O)c4-c4cc3ccc4O)[C@H](O)c3ccc(c(Cl)c3)Oc3cc2cc(c3O[C@@H]2O[C@H](CO)[C@@H](O)[C@H](O)[C@H]2O[C@H]2C[C@](C)(N)[C@H](O)[C@H](C)O2)Oc2ccc(cc2Cl)[C@H]1O [VM, vancomycin hydrochloride] | > 512 | > 512 | > 512 | 513 ± 404 | 512 | > 512 | 2 | 512 | > 512 | > 512 | 512 | 256 | > 512 | 256 | 64 | 256 | 1 | MIC ([1]; Lactobacillus reuteri, […], read-out: MIC): 64 µg/mL; MIC ([4]; ATCC7644, growth inhibited by ≥80%, read-out: MIC): 8 µg/mL; MIC ([5]; Bifidobacterium longum ssp. longum, […], read-out: MIC): 2 µg/mL; IC50 ([6]; HT-29, 72 h): > 512 µg/mL; IC80 ([6]; HT-29, 72 h): > 512 µg/mL; MIC ([7]; ATCC15700, […], read-out: MIC): 4 µg/mL; IC50 ± SD [8, 29]: - (Not active (MIC/IC50/80 > 512 μg/mL, the value 1024 μg/mL was used for average calculation)); IC80 ± SD (80% inhibitory concentration of proliferation) [8, 29]: - (Not active (MIC/IC50/80 > 512 μg/mL, the value 1024 μg/mL was used for average calculation)); IC50 ([8]; read-out: IC50 ± SD, FHs 74 Int (intestinal normal cells), MTT): > 512 µg/mL; IC80 ([8]; read-out: IC80 ± SD (80% inhibitory concentration of proliferation), FHs 74 Int (intestinal normal cells), MTT): > 512 µg/mL; MIC ([9]; both clostridial species tested, read-out: MICs): 0.5 to 8 µg/mL; MIC ([13]; ATCC12022, […], read-out: MIC): > 512 µg/mL; MIC ([15]; DSMZ20087, […], read-out: MIC): 2 µg/mL; MIC ([16]; ATCC25285, […], read-out: MIC): 32 µg/mL; MIC ([17]; bifidobacteria, range over strains, read-out: MICs): 2 to 4 µg/mL; MIC ([17]; lactobacilli, range over strains, read-out: MICs): 64 to 256 µg/mL; MIC ([17]; mean of 9 strains, >512 replaced with 1024, read-out: x¯ -PB ± SD: mean MIC for probiotic bacteria): 47.8 ± 78 µg/mL; MIC ([18]; ATCC29521, […], read-out: MIC): 4 µg/mL; MIC ([24]; Bifidobacterium animalis spp. lactis, […], read-out: MIC): 2 µg/mL
